Measurements reported in patent publication US20230192699A1, “COMPOUNDS AS CASEIN KINASE INHIBITORS” (GRITSCIENCE BIOPHARMACEUTICALS CO., LTD., priority 2020, published 2023).

molecular target: wild type CK1δ (Homo sapiens, UniProt P48730); assay: CK1δ kinase assay (Kinase-Glo); type: biochemical; details: 10 μM ATP, 2 nM wild type CK1δ, 85 min at 25° C.; read-out: CK1δ inhibition (IC50)
Description: The CK1δ kinase assay was performed with a buffer (40 μL, pH 7.5) containing 50 mM Tris, 10 mM MgCl2, 1 mM dithiothreitol, 100 μg/mL BSA with 10 μM ATP, 2 nM wild type CK1δ, and 42 μM peptide substrate PLSRTLpSVASLPGL (Flotow et al., 1990) in the presence of 1 μL of a CK1δ inhibitor (e.g., a compound of the present application) or 4% DMSO (e.g., as control). The reaction mixture was incubated for 85 min at 25° C.; detection was carried out as described for the Kinase-Glo Assay (Promega). Luminescent output was measured on the Perkin Elmer Envision plate reader (PerkinElmer, Waltham, Mass.).

Chain of wild type CK1δ (P48730 whole entry): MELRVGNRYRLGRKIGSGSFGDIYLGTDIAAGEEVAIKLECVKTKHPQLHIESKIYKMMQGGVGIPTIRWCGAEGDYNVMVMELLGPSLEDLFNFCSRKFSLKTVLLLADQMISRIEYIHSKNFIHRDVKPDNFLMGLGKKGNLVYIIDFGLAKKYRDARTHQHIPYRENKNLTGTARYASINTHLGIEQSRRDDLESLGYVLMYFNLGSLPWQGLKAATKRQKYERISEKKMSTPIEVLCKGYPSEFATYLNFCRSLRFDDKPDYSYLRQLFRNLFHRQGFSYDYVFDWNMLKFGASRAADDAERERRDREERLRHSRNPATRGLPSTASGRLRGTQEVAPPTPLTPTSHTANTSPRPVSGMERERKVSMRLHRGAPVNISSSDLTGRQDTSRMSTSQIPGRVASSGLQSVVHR

IC50 [nM]	SMILES
254	Fc1ccc(-c2nc3n(c2-c2ccncc2)CCNC3)cc1 [Compound 1-6, 2-(4-fluorophenyl)-3-(pyridin-4-yl)-5,6,7,8-tetrahydroimidazo[1,2-a]pyrazine]
614	CC(=O)N1CCn2c(nc(-c3ccc(F)cc3)c2-c2ccncc2)C1 [Compound 1-7, 1-(2-(4-fluorophenyl)-3-(pyridin-4-yl)-5,6-dihydroimidazo[1,2-a]pyrazin-7(8H)-yl)ethan-1-one]
74.9	Fc1ccc(-c2nn3c(c2-c2ccncc2)CN(Cc2ccccc2)CC3)cc1 [Compound 1-12, 5-benzyl-2-(4-fluorophenyl)-3-(pyridin-4-yl)-4,5,6,7-tetrahydropyrazolo[1,5-a]pyrazine]
67.3	Fc1ccc(-c2nn3c(c2-c2ccncc2)CNCC3)cc1 [Compound 1-13, 2-(4-fluorophenyl)-3-(pyridin-4-yl)-4,5,6,7-tetrahydropyrazolo[1,5-a]pyrazine]
163	Fc1ccc(-c2nn3c(c2-c2ccncc2)COCC3)cc1 [Compound 1-27, 2-(4-fluorophenyl)-3-(pyridin-4-yl)-6,7-dihydro-4H-pyrazolo[5,1-c][1,4]oxazine]
81.3	CCC(=O)N1CCn2nc(-c3ccc(F)cc3)c(-c3ccncc3)c2C1 [Compound 1-31, 1-(2-(4-fluorophenyl)-3-(pyridin-4-yl)-6,7-dihydropyrazolo[1,5-a]pyrazin-5(4H)-yl)propan-1-one]
368	CC(C)C(=O)N1CCn2nc(-c3ccc(F)cc3)c(-c3ccncc3)c2C1 [Compound 1-32, 1-(2-(4-fluorophenyl)-3-(pyridin-4-yl)-6,7-dihydropyrazolo[1,5-a]pyrazin-5(4H)-yl)-2-methylpropan-1-one]
279	CN1CCC(C(=O)N2CCn3nc(-c4ccc(F)cc4)c(-c4ccncc4)c3C2)CC1 [Compound 1-36, (2-(4-fluorophenyl)-3-(pyridin-4-yl)-6,7-dihydropyrazolo[1,5-a]pyrazin-5(4H)-yl)(1-methylpiperidin-4-yl)methanone]
161	CN1CCn2nc(-c3ccc(F)cc3)c(-c3ccncc3)c2C1 [Compound 1-42, 2-(4-fluorophenyl)-5-methyl-3-(pyridin-4-yl)-4,5,6,7-tetrahydropyrazolo[1,5-a]pyrazine]
1840	C[C@@H]1CNC(=O)c2c(-c3ccncc3)c(-c3ccc(F)cc3)nn21 [Compound 1-44, (R)-2-(4-fluorophenyl)-7-methyl-3-(pyridin-4-yl)-6,7-dihydropyrazolo[1,5-a]pyrazin-4(5H)-one]
370	C[C@H]1Cn2nc(-c3ccc(F)cc3)c(-c3ccncc3)c2CO1 [Compound 1-45, (S)-2-(4-fluorophenyl)-6-methyl-3-(pyridin-4-yl)-6,7-dihydro-4H-pyrazolo[5,1-c][1,4]oxazine]
686	Fc1ccc(-c2nn3c(c2-c2ccncc2)COCCC3)cc1 [Compound 1-47, 2-(4-fluorophenyl)-3-(pyridin-4-yl)-7,8-dihydro-4H,6H-pyrazolo[5,1-c][1,4]oxazepine]
106	Cc1cc(-c2c(-c3ccc(F)cc3)nn3c2CN(C)CC3)ccn1 [Compound 1-56, 2-(4-fluorophenyl)-5-methyl-3-(2-methylpyridin-4-yl)-4,5,6,7-tetrahydropyrazolo[1,5-a]pyrazine]
723	Nc1cc(-c2c(-c3ccc(F)cc3)nn3c2CNCC3)ccn1 [Compound 1-58, 4-(2-(4-fluorophenyl)-4,5,6,7-tetrahydropyrazolo[1,5-a]pyrazin-3-yl)pyridin-2-amine]
178	Cn1nc(-c2ccncc2)c(-c2ccc(F)cc2)n1 [Compound 3-6, 4-(5-(4-fluorophenyl)-2-methyl-2H-1,2,3-triazol-4-yl)pyridine]
21400	Cn1nnc(-c2ccc(F)cc2)c1-c1ccncc1 [Compound 3-9, 4-(4-(4-fluorophenyl)-1-methyl-1H-1,2,3-triazol-5-yl)pyridine]
3660	Fc1ccc(-c2nocc2-c2ccncc2)cc1 [Compound 3-20, 3-(4-fluorophenyl)-4-(pyridin-4-yl)isoxazole]

Further lines, the compound ahead of its results:

SMILES	IC50 [nM]
Fc1ccc(-c2nc3cnccn3c2-c2ccncc2)cc1 [Compound 1-5, 2-(4-fluorophenyl)-3-(pyridin-4-yl)imidazo[1,2-a]pyrazine]	499
O=C1OCc2nccc(-c3c(-c4ccc(F)cc4)nc4cnccn34)c21 [Compound 1-8, 4-(2-(4-fluorophenyl)imidazo[1,2-a]pyrazin-3-yl)furo[3,4-b]pyridin-5(7H)-one]	> 100000
Fc1ccc(-n2nc3c(c2-c2ccncc2)CCCC3)cc1 [Compound 1-16, 2-(4-fluorophenyl)-3-(pyridin-4-yl)-4,5,6,7-tetrahydro-2H-indazole]	9780
CC(=O)N1CCn2nc(-c3ccc(F)cc3)c(-c3ccnc(C)c3)c2C1 [Compound 1-33, 1-(2-(4-fluorophenyl)-3-(2-methylpyridin-4-yl)-6,7-dihydropyrazolo[1,5-a]pyrazin-5(4H)-yl)ethan-1-one]	177
CC(=O)N1CCn2nc(-c3ccc(F)cc3)c(-c3cc[n+]([O-])c(C)c3)c2C1 [Compound 1-34, 4-(5-acetyl-2-(4-fluorophenyl)-4,5,6,7-tetrahydropyrazolo[1,5-a]pyrazin-3-yl)-2-methylpyridine-1-oxide]	> 100000
CC(=O)N1CCn2nc(-c3ccc(F)cc3)c(-c3ccnc(C)n3)c2C1 [Compound 1-51, 1-(2-(4-fluorophenyl)-3-(2-methylpyrimidin-4-yl)-6,7-dihydropyrazolo[1,5-a]pyrazin-5(4H)-yl)ethan-1-one]	963
CCc1cc(-c2c(-c3ccc(F)cc3)nn3c2CN(C(C)=O)CC3)ccn1 [Compound 1-52, 1-(3-(2-ethylpyridin-4-yl)-2-(4-fluorophenyl)-6,7-dihydropyrazolo[1,5-a]pyrazin-5(4H)-yl)ethan-1-one]	3110
CC(=O)N1CCn2nc(-c3ccc(F)cc3)c(-c3ccnc(C(C)C)c3)c2C1 [Compound 1-53, 1-(2-(4-fluorophenyl)-3-(2-isopropylpyridin-4-yl)-6,7-dihydropyrazolo[1,5-a]pyrazin-5(4H)-yl)ethan-1-one]	17000
Nc1cc(-c2c(-c3ccc(F)cc3)nn3c2OCC3)ccn1 [Compound 1-54, 4-(6-(4-fluorophenyl)-2,3-dihydropyrazolo[5,1-b]oxazol-7-yl)pyridin-2-amine]	800
Cc1cc(-c2c(-c3ccc(F)cc3)nn3c2CN(C(=O)C2CCN(C)CC2)CC3)ccn1 [Compound 1-55, (2-(4-fluorophenyl)-3-(2-methylpyridin-4-yl)-6,7-dihydropyrazolo[1,5-a]pyrazin-5(4H)-yl)(1-methylpiperidin-4-yl)methanone]	496
Cn1cc(-c2ccncc2)c(-c2ccc(F)cc2)c1C#N [Compound 3-1, 3-(4-fluorophenyl)-1-methyl-4-(pyridin-4-yl)-1H-pyrrole-2-carbonitrile]	180
Cn1cc(-c2ccncc2)c(-c2ccc(F)cc2)c1C(N)=O [Compound 3-2, 3-(4-fluorophenyl)-1-methyl-4-(pyridin-4-yl)-1H-pyrrole-2-carboxamide]	11100
COC(=O)c1[nH]cc(-c2ccncc2)c1-c1ccc(F)cc1 [Compound 3-4, methyl 3-(4-fluorophenyl)-4-(pyridin-4-yl)-1H-pyrrole-2-carboxylate]	480
COC(=O)c1c(-c2ccc(F)cc2)c(-c2ccncc2)cn1C [Compound 3-5, methyl 3-(4-fluorophenyl)-1-methyl-4-(pyridin-4-yl)-1H-pyrrole-2-carboxylate]	7710
Cn1cc(-c2ccncc2)c(-c2ccccc2F)n1 [Compound 3-14, 4-(3-(2-fluorophenyl)-1-methyl-1H-pyrazol-4-yl)pyridine]	1080
Cn1cc(-c2ccncc2)c(-c2ccc(F)cc2F)n1 [Compound 3-15, 4-(3-(2,4-difluorophenyl)-1-methyl-1H-pyrazol-4-yl)pyridine]	531
Cn1cc(-c2ccncc2)c(-c2ccc(F)c(F)c2)n1 [Compound 3-16, 4-(3-(3,4-difluorophenyl)-1-methyl-1H-pyrazol-4-yl)pyridine]	497
Cn1cc(-c2ccncc2)c(-c2cc(F)cc(F)c2)n1 [Compound 3-17, 4-(3-(3,5-difluorophenyl)-1-methyl-1H-pyrazol-4-yl)pyridine]	1020
Cn1cc(-c2ccncc2)c(-c2ccc(F)cc2Cl)n1 [Compound 3-18, 4-(3-(2-chloro-4-fluorophenyl)-1-methyl-1H-pyrazol-4-yl)pyridine]	4390
Cn1cc(-c2ccncc2)c(-c2cccc(F)c2)n1 [Compound 3-19, 4-(3-(3-fluorophenyl)-1-methyl-1H-pyrazol-4-yl)pyridine]	281
Fc1ccc(-n2nncc2-c2ccncc2)cc1 [Compound 4-1, 4-(1-(4-fluorophenyl)-1H-1,2,3-triazol-5-yl)pyridine]	215
Cn1cc(-c2ccnc3c2C(=O)OC3)c(-c2ccc(F)cc2)c1C#N [Compound 5-1, 3-(4-fluorophenyl)-1-methyl-4-(5-oxo-5,7-dihydrofuro[3,4-b]pyridin-4-yl)-1H-pyrrole-2-carbonitrile]	132
Cn1cc(-c2ccnc3[nH]cnc23)c(-c2ccc(F)cc2)c1C#N [Compound 5-4, 3-(4-fluorophenyl)-4-(3H-imidazo[4,5-b]pyridin-7-yl)-1-methyl-1H-pyrrole-2-carbonitrile]	2200
O=C1OCc2nccc(-c3cn4c(c3-c3ccc(F)cc3)C(=O)NCC4)c21 [Compound 5-5, 4-(8-(4-fluorophenyl)-1-oxo-1,2,3,4-tetrahydropyrrolo[1,2-a]pyrazin-7-yl)furo[3,4-b]pyridin-5(7H)-one]	320
